We go through two compounds from patent US20230220443A1, “CHARACTERIZATION OF S-ADENOSYL-L-METHIONINE-CONSUMING ENZYMES WITH 1-STEP EZ-MTASE: A UNIVERSAL COUPLED-ASSAY” (ALBERT EINSTEIN COLLEGE OF MEDICINE, priority 2017, published 2023).

The structures appear in SMILES notation.

The target in assay [1] is T1, TbPRMT7 (Trypanosoma brucei brucei, UniProt Q582G4).
T1 construct: made in house
The assay can be described thus: 1-Step EZ-MTase UV-based coupled assay, TbPRMT7 kinetics (incl. ionic strength). The format is biochemical. The settings on record: for Km / kcat: pH=7.60, 25 mM phosphate, co-substrate saturating. As for the experimental part:
Briefly, the 250-μL reaction mixtures from a same row contained 25 mM phosphate buffer pH=7.60, 1 mM βME, 10% glycerol, 4 μM coupling deaminase TM0936, 1.0 μM TbPRMT7 and various peptide concentrations (16.6-243.3 μM; in the first well, peptide acceptor was omitted to account for background signal—natural decomposition of SAM). Reactions started upon addition of SAM (25.8 μM saturating final concentration) and absorbance was recorded. […] Fit to the Michaelis-Menten model (Eq. 5) provided corresponding kinetic parameters:
Briefly, the measurements consisted of two experimental subsets: MTase reactions (both SAM and peptide added) and MTase blanks (SAM was added without peptide to account for natural SAM decomposition). The 250-μL reaction mixtures from a same row contained 25 mM phosphate buffer pH=7.60, 1 mM βME, 10% glycerol, 4 μM coupling deaminase TM0936, 402 nM TbPRMT7 and various SAM concentrations (1.53-20.0 μM). […] Initial rates were first corrected for background signal, then plotted against SAM concentrations and fitted to the Morrison kinetic model to yield corresponding kinetic parameters.
(§1) Kinetic behavior for 8-aza-SAM against MTases (acceptor sat.)—Briefly, kinetic parameters were determined at 20° C. in a UV-Star 96-well flat bottom plate (Greiner Bio-One, #655801) by continuous monitoring of absorbance at 282 nm using a SpectraMax M5 instrument (Molecular Devices). As for SAM experiments, the measurements consisted of two experimental subsets: MTase reactions (both 8-aza-SAM and acceptor added) and MTase blanks (8-aza-SAM was added without acceptor to account for natural 8-aza-SAM decomposition). The 250-μL (60-μL) reaction mixtures from a same row contained 50 mM phosphate buffer pH=7.60 (7.80), 1 mM βME, 10% glycerol (5% glycerol, 100 μM MgCl2), 4 μM coupling deaminase TM0936, either 1.5 μM CePRMT5 or 402 nM TbPRMT7 (or 610 nM GsSDMT) and various 8-aza-SAM concentrations. […] Initial rates were first corrected for background signal, then plotted against 8-aza-SAM concentrations and fitted to the Michaelis-Menten equation to yield corresponding kinetic parameters. The kinetic data from CePRMT5 were fit to the following Eq. 6 to reflect substrate inhibition observed at higher 8-aza-SAM concentration:
Experiments were conducted following TbPRMT7 protocol above. Briefly, the 250-μL reaction mixtures from a same row contained either 25, 50, 75 or 100 mM phosphate buffer pH=7.60, 1 mM βME, 10% glycerol, 4 μM coupling deaminase TM0936, 1.0 μM TbPRMT7 and various peptide concentrations (16.6-243.3 μM; in the first well, peptide acceptor was omitted to account for background signal—natural decomposition of SAM). Reactions started upon addition of SAM (25.8 μM saturating final concentration) and absorbance was recorded. […] The four fits to the Michaelis-Menten equation (kcat fixed at 29 h^−1) provided corresponding Km values and established impact of ionic strength onto this kinetic parameter.

Assay [2] deals with T2, CePRMT5 (Caenorhabditis elegans, UniProt P46580).
T2 construct: made in house
T2 sequence (P46580 1-734): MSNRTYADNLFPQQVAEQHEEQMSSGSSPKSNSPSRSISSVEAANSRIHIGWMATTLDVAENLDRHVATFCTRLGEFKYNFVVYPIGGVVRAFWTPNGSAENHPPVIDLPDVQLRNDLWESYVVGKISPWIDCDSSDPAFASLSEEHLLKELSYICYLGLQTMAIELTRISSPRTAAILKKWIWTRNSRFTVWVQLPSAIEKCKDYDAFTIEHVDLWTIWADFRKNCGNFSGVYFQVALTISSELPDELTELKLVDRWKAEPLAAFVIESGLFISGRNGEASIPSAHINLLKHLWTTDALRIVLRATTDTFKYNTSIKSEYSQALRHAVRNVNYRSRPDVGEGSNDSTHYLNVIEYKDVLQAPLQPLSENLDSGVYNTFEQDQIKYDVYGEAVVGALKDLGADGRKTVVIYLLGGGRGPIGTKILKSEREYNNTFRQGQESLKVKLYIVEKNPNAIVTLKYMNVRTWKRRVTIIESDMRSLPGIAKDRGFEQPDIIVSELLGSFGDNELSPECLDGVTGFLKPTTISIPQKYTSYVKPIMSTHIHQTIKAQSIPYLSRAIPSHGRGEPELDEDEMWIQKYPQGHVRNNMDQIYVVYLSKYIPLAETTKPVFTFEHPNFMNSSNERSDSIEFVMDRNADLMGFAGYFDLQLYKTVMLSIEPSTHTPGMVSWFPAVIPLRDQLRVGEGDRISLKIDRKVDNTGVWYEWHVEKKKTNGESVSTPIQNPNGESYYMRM
Briefly: 1-Step EZ-MTase UV-based coupled assay, CePRMT5 kinetics. The settings on record: for Km / kcat: pH=7.60, co-substrate saturating, 4 μM TM0936, 263 nm (282 nm for 8-aza-SAM); for catalytic efficiency: saturating H4 peptide. The format is biochemical. As for the experimental part: The 250-μL reaction mixtures from a same row contained 50 mM phosphate buffer pH=7.60, 1 mM βME, 10% glycerol, 4 μM coupling deaminase TM0936, 300 nM CePRMT5 and various peptide concentrations (5-180 μM; in the first well, peptide acceptor was omitted to account for background signal—natural decomposition of SAM). The methyltransfer reactions started upon addition of SAM (25 μM saturating final concentration) and absorbance was recorded.
The 250-μL reaction mixtures from a same row contained 50 mM phosphate buffer pH=7.60, 1 mM βME, 10% glycerol, 4 μM coupling deaminase TM0936, 300 nM CePRMT5 and various SAM concentrations (2.35-47.0 μM). […] Initial rates were first corrected for background signal, then plotted against SAM concentrations and fitted to the Morrison kinetic model to yield corresponding kinetic parameters.
as §1, with “parameters.” for “parameters. The kinetic data from CePRMT5 were fit to the following Eq. 6 to reflect substrate inhibition observed at higher 8-aza-SAM concentration:”

T1 sequence (Q582G4 whole entry): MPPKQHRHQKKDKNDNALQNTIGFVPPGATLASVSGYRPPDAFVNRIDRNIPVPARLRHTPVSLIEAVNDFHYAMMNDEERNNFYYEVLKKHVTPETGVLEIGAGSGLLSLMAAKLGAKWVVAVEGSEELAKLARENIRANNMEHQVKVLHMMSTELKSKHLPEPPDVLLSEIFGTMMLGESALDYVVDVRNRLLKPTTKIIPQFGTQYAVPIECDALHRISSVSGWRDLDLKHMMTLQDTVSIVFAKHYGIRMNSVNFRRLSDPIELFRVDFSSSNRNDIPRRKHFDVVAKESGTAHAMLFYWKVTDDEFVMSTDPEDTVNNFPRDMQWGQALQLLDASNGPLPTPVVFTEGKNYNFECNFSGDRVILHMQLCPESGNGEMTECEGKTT

Usually Km stands for the substrate concentration at which the rate is half of its maximum. One may read the kcat as the maximal rate divided by the concentration of active sites. Turning to `C[S+](CC[C@H](N)C(=O)O)C[C@H]1O[C@@H](n2cnc3c(N)ncnc32)[C@H](O)[C@@H]1O` (stereo partly drawn) [SAM, S-adenosyl-L-methionine], in assay [1], the Km amounted to 1.1 ± 0.2 µM and the kcat was 0.00619 ± 0.00017 s⁻¹. Besides, in assay [2], the Michaelis-Menten constant (Km) was determined as 6.8 ± 0.3 µM, the kcat was 0.00886 ± 0.00014 s⁻¹ and the catalytic efficiency is 1300 M⁻¹ s⁻¹.

Consider `C[S+](CC[C@H](N)C(=O)O)C[C@H]1O[C@@H](n2nnc3c(N)ncnc32)[C@H](O)[C@@H]1O` (stereo partly drawn) [8-aza-SAM, S-8-aza-adenosyl-L-methionine], for which, in assay [1], the “substrate inhibition (inhibitory behavior of the analog)” value is given as “not observed”, the Km worked out at 15.3 ± 0.7 µM and the kcat was found to be 0.00639 ± 0.00011 s⁻¹. In addition, the “substrate inhibition constant (Ks / Kf)” value in assay [2] (282 nm, pH=7.60, H4(1-20) 104 μM) is 67 ± 42 µM. In addition, in assay [2], the Michaelis constant (Km) was found to be 35 ± 19 µM, the kcat turned out to be 0.00417 ± 0.0017 s⁻¹ and the catalytic efficiency came out at 120 M⁻¹ s⁻¹.
